From patent publication US9974800B2 (priority 2014, dated 2018)

Tested on: Ebola virus
Format: cell-based
Settings: alone

CC[C@H]1OC(=O)[C@H](C)[C@@H](O[C@H]2C[C@@](C)(OC)[C@@H](O)[C@H](C)O2)[C@H](C)[C@@H](O[C@@H]2O[C@H](C)C[C@H](N(C)C)[C@H]2O)[C@](C)(OC)C[C@@H](C)C(=O)[C@H](C)[C@@H](O)[C@]1(C)O [Clarithromycin]
inhibit EBOV infection in primary macrophages: can inhibit EBOV infection
